From patent US11168052B2, “Carbamate derivative compounds, processes for preparing them and their uses” (BIO-PHARM SOLUTIONS CO., LTD., priority 2016, dated 2021)

Legend:
[1] = tested on: CFA-induced pain model in rats; assay: Antiallodynic activity on Complete Freund's Adjuvant (CFA)-induced inflammatory pain model; format: in vivo, Sprague-Dawley rats; details: Rattus norvegicus, ip, 50 mg/kg intraperitoneally, von Frey threshold relative to sham, 0.5 hr after administration, read-out: Efficacy of 50 mg/kg(%)
Procedure: Male, Sprague-Dawley rats (210-250 g, Nara Bio, Korea) were habituated for 1 week before surgery and allowed free access to food and water throughout the experimentation. Room temperature and humidity were maintained at 24±2 and 50±10%, respectively.
CFA-induced inflammatory pain was induced by the procedure of Nagakura et al. (2003) and Gregory P. et al. (2010) with minor modifications. CFA (sigma, USA) was injected in the right plantar with a 100 ul volume under gaseous anesthesia with isoflurane. Sham controls were injected with 100 ul of saline, and preparation of the vehicle controls were identical to the group treated with compound, except for administration of vehicles without indentical to the vihecle control group.
Tactile sensitivity (Mechanical allodynia) was evaluated using von Frey monofilaments before and after treatment, and animals were include in the study only if the withdrawal threshold value was less than 4 g. One week after CFA injection, CFA-infused animals, sham-operated animal, and vehicle-operated animals were tested for tactile sensitivity with von Frey monofilaments, with 3 trials for each animal. All Animals were placed in a stainless steel mashe chamber and habituated for 30 min in the test cage. The tactile sensitivity for ipsilateral hind paw was measured using the up-and-down method (Dixon, 1980) with seven von Frey monofilaments (0.4, 1, 2, 4, 6, 8, and 15 g) to 3 trials. The tactile sensitivity test was followed by Dixon's method (Dixon, 1980). The 50% paw withdrawal threshold for each paw was calculated using the following formula: [Xth]log=[vFr]log+ky where [vFr] is the force of the last von Frey used, k=0.2249 which is the average interval (in log units) between the von Frey monofilaments, and y is a value that depends upon the pattern of withdrawal responses (Dixon, 1980).
Antiallodynic effect of compounds was evaluated at the dose of 50 mg/kg (n=4-6), intraperitoneally administrated in a volume of 5 ul/g bw in a vehicle of 30% (v/v) PEG or 20% (v/v) Tween 80. The test was performed peak time of efficacy (0.5 hr) after compound administration.
The relative values compared to the sham (% control) were calculated and shown in Table 5, which show an antiallodynic effect of Compound 1 on CFA-induced pain model in rats.

[2] = tested on: MES (electroshock) seizure in mice; assay: Anti-epilepsy activity, MES test in mouse; format: in vivo, ICR mice; details: po
Procedure: (§1) In the MES test (Ref., G. Villetti et al. Neuropharmacology 40(2001) 866-878), an electrical stimulus (mice: 50 mA, 60 Hz, 0.2 sec, and rats: 150 mA, 60 Hz, 0.2 sec in the test animal) supplied by an 11A Shocker (IITC Life Science Company) was delivered through corneal electrodes. All mice or rats assigned to any electroshock at peak time were treated with each test compound sample which was dissolved in 20% tween 80 prepared by saline solvent applied orally before the test. […] Three doses of the test sample were administered orally to 9-18 animals (3-6 mice per dose) for evaluating the respective doses at which 50% of the animals were protected from seizure (ED50). The ED50 value (median effective dose) was calculated by Litchfield and Wicoxon log-probit method which is a dose-response relationship. Experimental animals, male ICR mice and male SD rats, were purchased from OrientBio, Samtako, or Nara Biotech, Korea, and housed in cages (4-5 mice or 3 rats per cage) for 4-5 days. The range of mice body weight was between 19 and 25 grams and range of rats body weight was between 100 and 130 grams.

[3] = tested on: MES (electroshock) seizure in rats; assay: Anti-epilepsy activity, MES test in rats; format: in vivo, SD rats; details: Rattus norvegicus, po
Procedure: as §1

[4] = tested on: PTZ (Pentylenetetrazol)-induced clonic seizure in mice; assay: Anti-epilepsy activity, scPTZ test in mouse; format: in vivo, ICR mice; details: ip
Text: (§2) In this experiment, each test compound sample was formulated as described in Biological Experimental Example 1, and administered intraperitoneally to the test animals (mice; ICR or Rat; SD); Experimental animals, male ICR mice and male SD rats, were purchased from OrientBio or Nara biotech, Korea, and housed 4-5 mice per a cage for 4-5 days. The range of mice body weight was used between 19 and 26 grams and range of rats body weight was used between 100 and 130 grams. After Peak time (0.5, 1, 2 and 4 hr) from the administration, PTZ (Pentylenetetrazol) was administered subcutaneously in the concentration capable of inducing 97% intermittent convulsions (mice: 100-110 mg/kg?bw, 10 μl/g, or rats: 90-110 mg/kg?bw, 2 μl/g). If clonic seizure was not observed for at least 30 minutes in the PTZ administered animal, it can be considered that the test compound has anti-epilepsy activity. The median effective dose (ED50) is determined using 6 animals per a concentration (total three different concentrations), and calculated by Litchfield and Wicoxon log-probit method which is a dose-response relationship.

[5] = tested on: PTZ (Pentylenetetrazol)-induced clonic seizure in rats; assay: Anti-epilepsy activity, scPTZ test in rats; format: in vivo, SD rats
Text: as §2

[6] = tested on: Lithium-pilocarpine induced seizure in rats; assay: Lithium-pilocarpine induced epilepsy test (LI-PILO), prevention test; format: in vivo, Sprague-Dawley rats; details: Rattus norvegicus, ip, prevention, read-out: Lithium pilocarpine model (pre) ED50
Procedure: Male Sprague-Dawley rats (purchased from Orient Bio Inc. Korea) of body weight 175 grams were used for these studies and 3 rats per cage were housed for 4-5 days. On the day prior to SE, rats received 127 mg/kg lithium chloride (Sigma, St. Louis, Mo., U.S.A.) intraperitoneally (i.p.). Approximately 18-20 h following this treatment, rats were given an i.p. injection of the concentration capable of inducing 97% intermittent convulsions pilocarpine(Sigma, 30-43 mg/kg). An i.p. injection of 2 mg/kg methyl-scopolamine (Sigma) was administered 30 min prior to pilocarpine to block the effects of the muscarinic agonist on peripheral cholinergic receptors. Test drugs were dissolved in 20% tween80 (Sigma).
The drugs were administered intraperitoneally (i.p.) in a volume of 2 μl/g body weight. Pharmacological effects of all of the test materials were evaluated to compare test groups (n=6) with a control group (n=6). Control group was administered vehicle only. The efficacy was measured 0.5, 1, 2, or 4 hours after the administration of the test material. The time point that the most animals were protected was defined as peak time and the ED50 was determined at peak time. The animals were then transferred to observation cages and observed continuously for 90 min Seizure was elicited in approximately 95% of the control group. Protection was defined as complete absence of seizure grade 3-5 (Racine scale; Racine, 1972) over the 90-min observation period. The effective dose of the compound necessary to protect 50% of the animals against seizures compared to controls (i.e., ED50) was determined by a curve fitting program (Excel 2007, Microsoft).

[7] = tested on: Picrotoxin (PIC)-induced clonic seizure in mice; assay: Chemical induced seizure model (PIC); format: in vivo, ICR mice; details: mice, dose 50 mg/kg
Procedure: Picrotoxin (PIC) were used to induce the behavioral seizures in the experiments. Male ICR mice (purchased from Orient Bio Inc. Korea) of body weight 19-26 g (mice) were used for these studies. The test materials were administered intraperitoneal (ip) route in a volume of 10 ul/g (mice) weight in rats or mice, respectively. Pharmacological effects of the test materials were evaluated to compared test groups (n=6) with a control group (n=6). Control group was administrated vehicle, only. The peak time was determined by administration of test material's random dose for 0.5, 1, 2, 4 hour. The time that the most protect was defined as a peak time and ED50 was determined by other dose administration at the peak time. Chemical (PIC) was dissolved in 0.9% saline and administered subcutaneously (s.c.) at its CD97 (convulsive dose 97%), the dose of Chemical (PIC) that produced clonic seizures in 97% into a loose fold of skin in the midline of the neck in a volume of 10 ul/g (mice) body weight. The animals were then transferred to observation cages and observed continuously for 45 min. Clonic seizure was elicited in approximately 97% of control group. Protection was defined as a complete absence of clonic seizure over the 45-min observation period. The effective dose of compound necessary to protect against generalized convulsive seizures to 50% of controls (i.e., ED50) was determined by log probit analysis using SPSS software program (SPSS Inc.). (Reference; White H. S., J. H. Woodhead, K. S. Wilcox, J. P. Stables, H. J. Kupferberg, and H. H. Wolf. General Principles; Discovery and Preclinical Development of Antiepileptic Drugs. In: R. H. Levy, R. H. Mattson, B. S. Meldrum, and E. Perucca, eds. Antiepileptic Drugs, 5th Ed. Lippincott Williams & Wilkins, Philadelphia 2002: pp. 36-48.) The obtained results are shown in following Table 10.

corneally kindled rats = assay: Corneal kindling (CK) rat model; format: in vivo, Sprague-Dawley rats; details: po
Text: Male Sprague-Dawley rats (purchased from Orient Bio Inc. Korea) of body weight 85-100 g were used for these studies. The MES test using the electroshock seizure apparatus designed by Rodent Shocker Type221 (Hugo Sachs Elektronik, Germany). The kindled rat models were electrically stimulated (8 mA, 60 Hz, 2 s, corneal electrodes) twice daily for 21 days until stage 5 seizure scored by Racine's scale (Racine, 1972) were evoked. The kindled rats were fasted and adapted to test condition, for at least 1 hour before the administration of test material. The drugs were administered orally (p.o.) in a volume of 4 μl/g body weight. The corneally kindled rat model test is a model for generalized […] seizures or bipolar disorder and identifies the compound which prevents seizure or bipolar disorder spread. The shock level was set at 8 mA, 60 Hz and the duration was set at 2 s. A drop of 0.9% saline was placed in each eye, the electrodes were placed over the eyes, and the shock was administered immediately. Pharmacological effects of the test materials were evaluated to compare the test groups (n=6) with a control group (n=6). Control group was administrated vehicle, only. The peak time was determined by administration test material's random dose for 0.5, 1, 2, 4 hour. The time that the most protect was defined peak time and ED50 was determined by other dose administration at peak time. […]

ICR mice on hot plate = assay: Hot-plate test; format: in vivo; details: Mus musculus, po, orally, withdrawal latency
Procedure: To examine the pain relief effect of the carbamate compounds, a hot-plate test was conducted in referring to Current Protocols in Neuroscience; Behavioral Neuroscience Unit 8.9.
(§3) ICR mice (male, 25-28 g; Orient Bio, Korea) were habituated before test (in test room) for 1 hour. Animals were fasted 2 hr before administration of compounds. Compounds were orally administered at the three dose, 10 ul/g, by bodyweight (n=4-6/group). All compounds were dissolved in a vehicle of 30% (v/v) PEG 400 or 20% (v/v) Tween 80. The control group was treated the vehicle without compounds.
0.25-2.0 hr after the administration of compounds, the mice were put on a hot plate pre-heated to 55±1 (Hu, X. et al, 2008), and then, the withdrawal latency time was measured (cut-off time: 30 sec) until the point when each mouse was taking a paw off from the plate, shaking, licking a paw or hind leg, or jumping from the plate.

[8] = tested on: ICR mice, tail-flick analgesia meter; assay: Tail-flick test; format: in vivo; details: orally, withdrawal latency
Procedure: To examine the pain relief effect of the carbamate compounds, a tail-flick test was conducted, referring to Current Protocols in Neuroscience; Behavioral Neuroscience Unit 8.9.
as §3, with “25-30g;” for “25-28 g;”, “Each of Compound was” for “Compounds were”, “1-3” for “three”
After the administration of compounds, the mice tail were put on a tail-flick analgesia meter. To avoid tissue damage, maximal exposure time to pain stimuli was restricted to 15 s. The withdrawal latency was measured to the time to the point when each mouse responded. The relative values compared to the control (% control) were calculated.
The relative values compared to the sham were calculated and shown in Table 7, which show effect of the compound of examples on tail-flick test in Mice.

| Compound | response vs control in vivo at 50 mg/kg [1] [%] | ED50 [2] [mg/kg] | ED50 [3] [mg/kg] | ED50 [4] [mg/kg] | ED50 ([5]; Rattus norvegicus, ip) [mg/kg] | ED50 [6] [mg/kg] | PIC(ip) efficacy % [7] | ED50 (corneally kindled rats) [mg/kg] | ED50 (ICR mice on hot plate) [mg/kg] | Tail-flick test Dose [8] [mg/kg] | scPTZ test (ip) efficacy % ([5]; dose 100 mg/kg) |
| --- | --- | --- | --- | --- | --- | --- | --- | --- | --- | --- | --- |
| NC(=O)O[C@H]1CCc2cccc(Cl)c2[C@H]1O [Example 2, (1R, 2S)-8-chloro-1-hydroxy-1,2,3,4-tetrahydronaphthalen-2-yl carbamate] | 23.2 | 41 | 11.6 | 26.6 | 39.7 | 50 | 50 (66.6%) |  |  |  |  |
| NC(=O)O[C@@H]1Cc2cc(Cl)cc(Cl)c2[C@@H]1O [Example 59, (1S, 2R)-5,7-dichloro-1-hydroxy-2,3-dihydro-1H-inden-2-yl carbamate] |  | 56.5 |  |  |  |  |  | 21.4 |  |  |  |
| NC(=O)O[C@H]1Cc2cccc(Cl)c2[C@H]1O [Example 52, (1R, 2S)-7-chloro-1-hydroxy-2,3-dihydro-1H-inden-2-yl carbamate] | 34.7 | 24.3 | 10.9 |  |  | 63 |  |  | 119 | >200 | 100 (33.3%, |
